Where “and” joins values, the source holds several entries; their conditions need not be identical. Identical values can stand only once. Like-named read-outs stand apart in the source and are kept apart here. One block for each molecule: values may come before it.
Columns and labels:
DhXR K76A mutant = DhXR K76A mutant (Debaryomyces hansenii, UniProt Q6BLI9, K76A); assay: biochemical; assay type: binding
Procedure: (§1) Titrations of DhXR with ligands were examined by monitoring the intrinsic tryptophan fluorescence of DhXR using a Varian spectrofluorometer. Experiments were performed in indicated buffers as mentioned in the text. The excitation wavelength and emission wavelengths for monitoring DhXR-ligand interaction were 292 nm and 345 nm respectively. Slit widths were set to 5 nm for all experiments and PMT voltage was adjusted to get maximum signal for a given protein concentration. All experiments were done at 25.0±1°C. Initial readings of both the protein, Fprotein,0 and buffer, Fbuff,0 were taken, with F0 = Fprotein,0–Fbuff,0 defined as the initial fluorescence of the sample. The sample cuvette was then titrated with aliquots of ligands and mixed, and equilibrated for 3–4 minutes before measurement. Data points from five such measurements were averaged to obtain Fave,i. The relative fluorescence quenching upon sugar binding is defined as Qobs,i = (F0–Fave,i)/F0. All measurements were corrected for dilution, and inner filter effects.
(§2) Binding of ligands to DhXR was analyzed using two site binding model. [drawing 1] (1) where Q1 and Q2 are the fluorescence quenching corresponding to one and two ligands bound, respectively; L is concentration of free ligand in solution; K1,obs and K2,obs are association constants for the binding of the first and the second ligand molecule. Errors were calculated from fitting analysis of two independent experiments.
(§3) We tested the activity of all mutants and activities were normalized to the activity of wild type DhXR with respect to its D-xylose reducing activity.

DhXR Y47A mutant = DhXR Y47A mutant (Debaryomyces hansenii, UniProt Q6BLI9, Y47A); assay: biochemical; assay type: binding
Procedure: as §1, §2, §3

DhXR H109A mutant = DhXR H109A mutant (Debaryomyces hansenii, UniProt Q6BLI9, H109A); assay: biochemical; assay type: binding
Procedure: as §1, §2, §3

holo-DhXR [1] = molecular target: T1, holo-DhXR (Debaryomyces hansenii, UniProt Q6BLI9); assay: Steady state kinetics of carbonyl substrate reduction by holo-DhXR (A340, NADPH); assay type: biochemical; conditions: for Vmax / k cat: 25 °C, pH 7.0, 0.15 mM NADPH, 0.18 µM enzyme; for Km/Kd ratio (net affinity loss): Km of holoenzyme vs Kd of apoenzyme
Procedure: (§4) The xylose reductase activities of recombinant DhXR was determined spectrophotometrically by monitoring the change in A340 upon reduction of NADPH to NADP. The standard assay mixture contained 50 mM KPO4, pH 7.0, 100 mM sugar substrate, 0.3 mM NADPH, 0.18 µM of enzyme. Single point activity studies were performed at 40°C and all reactions were started by the addition of enzyme to a final volume of 0.8 ml (in standard assay condition). […] Errors for the activity assays were calculated from triplicate experiments. The kinetic parameters were determined using a range of substrate concentrations. Here, the reaction was performed at 25°C and assay mixture contained 50 mM KPO4, pH 7.0, 0.15 mM NADPH, 0.18 µM of enzyme and varying substrate concentrations. Steady state kinetics data were fit to Michaelis-Menten model, v = Vmax * [S]/([S]+Km), where Vmax, maximal velocity; Km, Michaelis-Menten constant; S, substrate concentration, and v, initial velocity.
To understand the specificity determining component in catalysis, we studied the steady state kinetics of holo-DhXR towards different carbonyl substrates. […] Therefore, all kinetic data analyzed fitting to Michaelis-Menten model by Non-Linear Least Squares method. (Fig. 4A). Steady state kinetic parameters are also determined for other sugars (table 3, Fig. 4B). […] We compared the Km/Kd ratio as an indicator of net affinity loss for a given substrate (Fig. S5).
In order to further verify that holoenzyme discriminates between substrate and non-substrate sugars, we challenged the catalysis of D-xylose by adding non-substrate sugars during kinetic experiments. […] We studied the kinetics of D-xylose reduction by holo-DhXR in the presence of fixed concentration (∼40 mM) of three sugars (Fig. 4C).

holo-DhXR [2] = molecular target: T1, holo-DhXR; assay: Specific activity of DhXR with 100 mM D-xylose in presence of competing sugars; assay type: biochemical
Procedure: as §4
Assays were performed at 100 mM D-xylose and concentrations of competing sugars were varied (25 mM to 400 mM). […] Both DhXR and NADPH (20.0 µM) are pre-incubated and fluorescence signal was monitored until no further change. […] It should be noted that D-xylose is the substrate and is very likely to be reduced soon after binding.

[3] = molecular target: apo-DhXR (wild type xylose reductase) (Debaryomyces hansenii, UniProt Q6BLI9); assay: Tryptophan fluorescence quenching titration, ligand binding to apo-DhXR wild type; conditions: for Kd: wild type apo-DhXR, 25 °C
Procedure: as §1, §2
We examined the binding of D-xylose, xylitol, and NADPH to apo-DhXR. Quenching of tryptophan fluorescence upon ligand binding was used as the signal for monitoring the extent of binding. Apo-DhXR was excited at 292 nm and emission of tryptophan fluorescence was scanned between 300–375 nm (Fig. S2). […] Intrinsic site-specific binding constants are estimated from the macroscopic binding constants obtained from fitting by removing the statistical factors as in eq (2). [drawing 2] (2)

holo-DhXR [4] = molecular target: T1, holo-DhXR; assay: Single point specific activity of holo-DhXR towards different sugars; assay type: biochemical; conditions: saturated sugar concentration (100 mM), 40 °C
Procedure: as §4

[5] = substrate: O=C[C@H](O)[C@@H](O)[C@H](O)CO; assay: Steady state kinetics of carbonyl substrate reduction by holo-DhXR (A340, NADPH); assay type: biochemical, Debaryomyces hansenii; conditions: other: 25 °C, pH 7.0, 0.15 mM NADPH, 0.18 µM enzyme
[6] = 25 mM sugar added in 100 mM D-xylose reaction
[7] = 100 mM sugar added in 100 mM D-xylose reaction
[8] = 400 mM sugar added in 100 mM D-xylose reaction

Molecule: O=C[C@H](O)[C@H](O)[C@H](O)CO [D-ribose]
Kd (DhXR K76A mutant): 10 ± 2 mM | reduction in affinity versus wild type (DhXR K76A mutant; K76A): 2 fold | Kd (DhXR Y47A mutant): 12 ± 1 mM | reduction in affinity versus wild type (DhXR Y47A mutant; Y47A, first site): ~2 fold | Kd (DhXR H109A mutant): 13 ± 3 mM | Vmax (holo-DhXR [1]): 93.1 ± 3.2 nmol/min | k cat (holo-DhXR [1]): 10.3 s⁻¹ | Km/Kd ratio (net affinity loss) (holo-DhXR [1]): 12–15 fold | Specific activity (holo-DhXR [2]; [6]): 77.5 ± 3.6 nmol/min | Specific activity (holo-DhXR [2]; [7]): 84.7 ± 3.8 nmol/min | Specific activity (holo-DhXR [2]; [8]): 78.5 ± 3.1 nmol/min | Kd ([3]; Kd1,int, first site): ~10.5 mM and 10.5 mM | fold less affinity than D-xylose ([3]; first site, apo-DhXR): ~2 fold | Kd ([3]; read-out: Kd2,int, second site): 83 ± 7 mM

Molecule: O=C[C@H](O)[C@@H](O)[C@@H](O)[C@H](O)CO [D-galactose]
reduction of holoenzyme activity compared with D-xylose (holo-DhXR [4]): 50% | reduction in affinity versus wild type (DhXR Y47A mutant; Y47A, first site): 8–10 fold | Vmax (holo-DhXR [1]): 136.5 ± 9.4 nmol/min | k cat (holo-DhXR [1]): 15.2 s⁻¹ | Specific activity (holo-DhXR [2]; [6]): 76.8 ± 3.8 nmol/min | Specific activity (holo-DhXR [2]; [7]): 84.4 ± 3.3 nmol/min | Specific activity (holo-DhXR [2]; [8]): 99.3 ± 4.3 nmol/min

Molecule: D-arabinose
Kd (DhXR K76A mutant; K76A, first site, read-out: Kd1,int): 34 ± 4 mM | reduction in affinity versus wild type (DhXR Y47A mutant; Y47A, first site): 8–10 fold | Kd (DhXR Y47A mutant; Y47A, first site, read-out: Kd1,int): 66 ± 13 mM | Kd (DhXR H109A mutant; H109A, first site, read-out: Kd1,int): 28 ± 3 mM | Vmax (holo-DhXR [1]): 127.2 ± 6.1 nmol/min | k cat (holo-DhXR [1]): 14.1 s⁻¹ | Km/Kd ratio (net affinity loss) (holo-DhXR [1]): ~220 fold | catalysis in steady state kinetic curves (in words) (holo-DhXR [1]; comparison of kinetic curves of different sugars): very weakly hydrolyzed | Km relative to that of D-xylose (holo-DhXR [1]; fold higher): 22 fold | Specific activity (holo-DhXR [2]; [6]): 69.4 ± 3.1 nmol/min | Specific activity (holo-DhXR [2]; [7]): 68.2 ± 3.7 nmol/min | Specific activity (holo-DhXR [2]; [8]): 66.5 ± 4.5 nmol/min | Kd ([3]; first site, read-out: Kd1,int): 8.1 ± 1 mM | Kd ([3]; second site, read-out: Kd2,int): 100 ± 10 mM

Kd ([3]; first site, read-out: Kd1,int): 8.2 ± 1 mM
Molecule: OC[C@@H](O)[C@H](O)[C@@H](O)CO [Xylitol, xylitol]

B1: holo-DhXR (Debaryomyces hansenii CBS767) (protein)
chain: MSIKLNSGYDMPLVGFGCWKVDNDTCAATIYNAIKVGYRLFDAAQDYGNCKEIGEGINKALDEGLVARDELFITSKLWNSYHDPKNVELALKKVLSDMKLDYLDLFLIHFPIAFKFVPIEERYPPGFYCGDGDKFHYENVPLADTWKAMEKLTKSGKVKSIGISNFSGALIYDLLRSAEIKPAVLQIEHHPYLQQPRLVEYVQSQNIAITGYSSFGPQSFLELKHSKALDTPTLFEHKTIKSIANKNKKTPAQVLLRWASQRNIAVIPKSNNPDRLLQNLEVNDFDLSKEDFEEISKLDQELRFNNPWDWDKIPIFA
Km [5]: 81 ± 6 mM | Vmax [5]: 0.185 µmol/min | kcat [5]: 20.6 s⁻¹ | kcat/Km [5]: 254 M⁻¹ s⁻¹

From article PMC3458928, “Co-Factor Binding Confers Substrate Specificity to Xylose Reductase from Debaryomyces hansenii” (PLoS ONE, 2012)
